Tests used:
Type in all cases: in vivo, human
[1] = Blood time-activity curve from venous blood samples (gamma counter, bi-exponential fit); conditions: blood samples 30 min, 80 min, 24, 48, 72 h p. i.; median of n = 5 patients per therapy
Procedure: (§1) Data for dosimetry were acquired during a routine 4-day in-patient stay following the radiopharmaceutical injection, in conjunction with standard clinical examinations. All patients received a 15-min one-bed abdominal SPECT scan and a 20-min whole-body planar scintigraphy at 24, 48, and 72 h post-injection (p. i.) on a dual-headed Symbia T2 SPECT/CT (Siemens Medical Solutions, Erlangen, Germany). Counts were detected for the photopeak window of 208 keV (width 15%) by the usage of a medium-energy low-penetration collimator. Two additional scatter windows were measured at 170 keV (width 15%) and 240 keV (width 10%). A low-dose AC-CT was acquired at the first image acquisition session for anatomical correlation and attenuation correction during quantitative SPECT reconstruction. For the determination of the absorbed dose to the bone marrow from the activity circulating in the blood, five venous blood samples were drawn from the site contralateral to injection at 30 and 80 min p. i. and 24, 48, and 72 h p. i..
[11, 13]. […] To derive the patient-specific blood TAC, 1 ml of blood of each sample was pipetted into a test tube and measured within a Cobra Gamma Counter (Packard Instrument Company, Inc., Meriden, CT), which has been previously calibrated via five 1-ml test samples of known activity concentration. […]

bone marrow = experiment: Bone marrow dosimetry, hybrid protocol (HP): sequential abdominal quantitative SPECT scaled with a single whole-body planar image
Procedure: The proposed hybrid protocol (HP) uses a single whole-body image and sequential single-bed quantitative SPECT acquisitions of the abdomen to determine the ROB TAC, instead of deriving the ROB TAC from sequential whole-body planar imaging.
First, the abdominal effective decay constant λSPECT was derived via a mono-exponential fit to the total activity in the SPECT scans 24, 48, and 72 h post-therapy. Especially, all organs and all tumours were included in the fitting of the TAC, as it was the case for the determination of A~WB from the reference protocol. […] The mono-exponential SPECT-based abdominal TAC was then scaled with a chosen base point. This base point is defined via the whole-body activity AWB(t^∗) of a single whole-body planar image acquired at an arbitrary time point t^∗∈ 24, 48, or 72 h post-therapy. The resulting pseudo-whole-body TAC AWB, pseudo(t) is intended to serve as an estimate of the reference-protocol-based whole-body TAC (Eq. (7.1)) and can be further used to determine a pseudo-whole-body time-integrated activity A~WB,pseudo (Eq. (7.2)).
7.1 AWB,pseudot=AWB,pseudot^∗∙exp−λSPECT∙t−t^∗, 7.2 A~WB,pseudo=∫t=0∞AWB,pseudot^′dt^′=AWBt^∗∙expλSPECT∙t^∗/λSPECT=AWBt^∗∙expλSPECT∙t^∗∙T1/2,SPECT/ln2.
Based on the hybrid model given in Eqs. (7.1) and (7.2), the bone marrow absorbed dose from the ROB can be estimated by Eqs. (4.1) and (4.2). In this work, we investigated a combination of the sequential abdominal SPECT with the whole-body planar images at 24, 48, or 72 h p. i., where each whole-body planar image was individually calibrated via the quantitative SPECT at the corresponding time point (Fig. 2). These different hybrid protocols were further denoted as HP24, HP48, and HP72. The agreement of the bone marrow absorbed doses from the ROB, as determined via the HP and the RP, was assessed. Therefore, the percentage deviation between absorbed dose estimates (PDdose; Eq. (8)) was calculated, and a statistical test for correlation was performed (MATLAB Pearson correlation analysis).
Furthermore, the same analysis was performed regarding the total bone marrow absorbed dose estimates composed of all available constituents: the ROB (including tumours), the explicitly analysed organs, and the contribution of the blood activity.

[2] = Whole-body effective half-life from sequential whole-body planar images (mono-exponential fit); conditions: mono-exponential fit, 24, 48, 72 h p. i.
Procedure: as §1
For each patient, all acquired whole-body planar images were corrected for scatter and attenuation on a pixel basis via a dedicated MATLAB routine (Fig. 1); for the correction of scatter, the TEW method was applied, as for the quantitative SPECT images. For the attenuation correction, a linear projection of μ values along the ventral axis of the patient was created from the diagnostic CT image of the pre-therapeutic Ga-68 PET/CT scan, which covered nearly the whole patient body from the middle of the head to approximately the knees. Therefore, a conversion between the Hounsfield units (HUs) in the diagnostic CT and the μ values at 208 keV was established by acquiring a CT scan of a Gammex tissue phantom (Gammex 467; Gammex, Inc., Middleton, WI) with 16 tissue rods of known composition and thus known attenuation characteristics. The μ values of all rods were plotted against the measured HUs, and a bilinear fit model (range 1: HU = (− 688;0); range 2: HU = (0;1127)) was applied to the whole data set. This calibration curve allows for the assignment of μ values to a continuous range of HUs. The lower arms and legs as well as a part of the head were not included in the PET/CT data, as the arms are usually positioned above the head during the PET/CT scan and as the PET/CT scan is usually not acquired over the entire patient length. By contrast, the arms, legs, and head are fully included in the whole-body planar images, and an appropriate μ value has to be defined for each segment (Fig. 1). Thus, mean μ values derived from three patients with PET/CT acquisitions of the head, legs, and arms were assigned to the missing segments. Therefore, all segments—the part visible on the PET/CT and the missing parts of the head, arms, and legs—were delineated on the co-registered whole-body planar images (delineation and rigid body co-registration via PMOD Version 3.609). The resulting map of the regions of interest (ROI) was saved, with each ROI segment being characterised via a defined value. This ROI map was then loaded by a self-designed MATLAB routine, which assigned the defined μ value to each segment according to the ROI number. Afterwards, the resulting whole-body integral μ-map was blurred via a Gaussian filter with a width approximating an average resolution of the gamma camera (geometric resolution of full width at half maximum of 11 mm at 10 cm). Pixel-wise attenuation correction was finally performed in conjunction with geometric averaging of both planar views (conjugate view method).
Calibration of whole-body planar images was performed via the corresponding quantitative abdominal SPECT by using the fact that ideally the total activity ASPECT within the quantitative SPECT should be correlated to the number of counts per second (cps) xplanar in the planar abdominal counterpart multiplied by an appropriate calibration factor: […]

[3] = median of n = 5 patients per therapy

SMILES: O=C(O)CC[C@H](NC(=O)N[C@@H](CCCCNC(=O)[C@H](Cc1ccc2ccccc2c1)NC(=O)[C@H]1CC[C@H](CNC(=O)CN2CCN(CC(=O)O)CCN(CC(=O)O)CCN(CC(=O)O)CC2)CC1)C(=O)O)C(=O)O [Lu-177-PSMA-617, Lu-177-DKFZ-PSMA-617, metal not drawn]
- effective half-life for the slow phase of the bi-exponential fit to the blood time-activity measurements [1]: 14 h
- DBM ← total HP24, total bone marrow absorbed dose (bone marrow; single whole-body planar image 24 h p. i., median of n = 5 patients per therapy): 11.3 mGy/GBq
- DBM ← total HP48, total bone marrow absorbed dose (bone marrow; single whole-body planar image 48 h p. i., median of n = 5 patients per therapy): 9.6 mGy/GBq
- DBM ← total HP72, total bone marrow absorbed dose (bone marrow; single whole-body planar image 72 h p. i., median of n = 5 patients per therapy): 10.1 mGy/GBq
- DBM ← total HP24, total bone marrow absorbed dose (bone marrow; whole-body planar image 24 h p. i., patient P6 (mCRPC, 3718 MBq)): 11.3 mGy/GBq
- DBM ← total HP24, total bone marrow absorbed dose (bone marrow; whole-body planar image 24 h p. i., patient P7 (mCRPC, 3743 MBq)): 8.1 mGy/GBq
- DBM ← total HP24, total bone marrow absorbed dose (bone marrow; whole-body planar image 24 h p. i., patient P8 (mCRPC, 3745 MBq)): 17.1 mGy/GBq
- DBM ← total HP24, total bone marrow absorbed dose (bone marrow; whole-body planar image 24 h p. i., patient P9 (mCRPC, 3752 MBq)): 13.5 mGy/GBq
- DBM ← total HP24, total bone marrow absorbed dose (bone marrow; whole-body planar image 24 h p. i., patient P10 (mCRPC, 3700 MBq)): 10.0 mGy/GBq
- DBM ← total HP48, total bone marrow absorbed dose (bone marrow; whole-body planar image 48 h p. i., patient P6 (mCRPC, 3718 MBq)): 9.6 mGy/GBq
- DBM ← total HP48, total bone marrow absorbed dose (bone marrow; whole-body planar image 48 h p. i., patient P7 (mCRPC, 3743 MBq)): 6.7 mGy/GBq
- DBM ← total HP48, total bone marrow absorbed dose (bone marrow; whole-body planar image 48 h p. i., patient P8 (mCRPC, 3745 MBq)): 17.1 mGy/GBq
- DBM ← total HP48, total bone marrow absorbed dose (bone marrow; whole-body planar image 48 h p. i., patient P9 (mCRPC, 3752 MBq)): 13.6 mGy/GBq
- DBM ← total HP48, total bone marrow absorbed dose (bone marrow; whole-body planar image 48 h p. i., patient P10 (mCRPC, 3700 MBq)): 8.1 mGy/GBq
- DBM ← total HP72, total bone marrow absorbed dose (bone marrow; whole-body planar image 72 h p. i., patient P6 (mCRPC, 3718 MBq)): 10.1 mGy/GBq
- DBM ← total HP72, total bone marrow absorbed dose (bone marrow; whole-body planar image 72 h p. i., patient P7 (mCRPC, 3743 MBq)): 7.0 mGy/GBq
- DBM ← total HP72, total bone marrow absorbed dose (bone marrow; whole-body planar image 72 h p. i., patient P8 (mCRPC, 3745 MBq)): 16.8 mGy/GBq
- DBM ← total HP72, total bone marrow absorbed dose (bone marrow; whole-body planar image 72 h p. i., patient P9 (mCRPC, 3752 MBq)): 15.1 mGy/GBq
- DBM ← total HP72, total bone marrow absorbed dose (bone marrow; whole-body planar image 72 h p. i., patient P10 (mCRPC, 3700 MBq)): 8.5 mGy/GBq
- T1/2, WB, planar-based whole-body effective half-life [2, 3]: 31 h
- T1/2, WB, planar-based whole-body effective half-life ([2]; patient P6 (mCRPC)): 22 h
- T1/2, WB, planar-based whole-body effective half-life ([2]; patient P7 (mCRPC)): 31 h
- T1/2, WB, planar-based whole-body effective half-life ([2]; patient P8 (mCRPC)): 65 h
- T1/2, WB, planar-based whole-body effective half-life ([2]; patient P9 (mCRPC)): 39 h
- T1/2, WB, planar-based whole-body effective half-life ([2]; patient P10 (mCRPC)): 29 h

SMILES: C[C@@H](O)[C@H](NC(=O)[C@@H]1CSSC[C@H](NC(=O)[C@@H](Cc2ccccc2)NC(=O)CN2CCN(CC(=O)O)CCN(CC(=O)O)CCN(CC(=O)O)CC2)C(=O)N[C@@H](Cc2ccc(O)cc2)C(=O)N[C@H](Cc2c[nH]c3ccccc23)C(=O)N[C@@H](CCCCN)C(=O)N[C@@H]([C@@H](C)O)C(=O)N1)C(=O)O [Lu-177-Octreotate, Lu-177-[DOTA^0,Tyr^3]-Octreotate, metal not drawn]
- effective half-life for the slow phase of the bi-exponential fit to the blood time-activity measurements [1]: 25 h
- DBM ← total HP72, total bone marrow absorbed dose (bone marrow; whole-body planar image 72 h p. i., patient P1 (NET, 7654 MBq)): 12.1 mGy/GBq
- T1/2, WB, planar-based whole-body effective half-life [2, 3]: 43 h
- T1/2, WB, planar-based whole-body effective half-life ([2]; patient P1 (NET)): 40 h
- T1/2, WB, planar-based whole-body effective half-life ([2]; patient P2 (NET)): 43 h
- T1/2, WB, planar-based whole-body effective half-life ([2]; patient P3 (NET)): 43 h
- T1/2, WB, planar-based whole-body effective half-life ([2]; patient P4 (NET)): 52 h
- T1/2, WB, planar-based whole-body effective half-life ([2]; patient P5 (NET)): 62 h
